Assay results published in US20020192223A1 (priority 1989, published 2002).

Tests used:
[1] = system: MCF7 human breast tumor xenografts; test: Test VI in vivo activity of ChiBR96-ADM conjugates; design: species or system athymic mice; conditions: ADM 6 mg/kg, iv
Excerpt: (§1) In general, there were 8-10 mice per control or treatment group. Data are presented as median tumor size for control or treated groups. Antitumor activity is expressed in terms of gross log cell kill (“LCK”) where: [formula]
(§2) T−C is defined as the median time (days) for treated tumors to reach target size minus the median time for control tumors to reach target size and TVDT is the time (days) for control tumors to double in volume (250-500 mm^3). Partial tumor regression (“PR”) refers to a decrease in tumor volume to ≦50% of the initial tumor volume; complete tumor regression (“CR”) refers to a tumor which for a period of time is not palpable; and cure is defined as an established tumor which is not palpable for a period of time ≧10 TVDTs.
(§3) Materials under investigation were administered by the ip or iv route. Adriamycin was diluted in normal saline; antibody and antibody/adriamycin conjugates were diluted in phosphate buffered saline. Compounds were administered on a mg/kg basis calculated for each animal, and doses are presented as mg/kg of equivalent adriamycin/injection. Immunoconjugates were administered on a q4dx3 schedule.
(§4) The antitumor activity of ChiBR96-ADM conjugates was evaluated against established human lung (“L2987”), breast (“MCF7,” obtainable from the ATCC under the accession number ATCC HTB 22; see also I. Hellström, et al., Cancer Research 50:2183 (1990)), and colon (“RCA” from M. Brattain, Baylor University; see also I. Hellström, et al., Cancer Research 50:2183 (1990)) tumors.
(§5) Animals were maintained and tumor xenograft models were established for the MCF7 and RCA and the L2987 human tumor lines as described for the L2987 in Test V. Materials were administered as described in Test V.
The MCF7 tumor is an estrogen-dependent human breast tumor line. Athymic mice were implanted with 0.65 mg (65 day release rate) estradiol pellets (Innovative Research of America, Toledo, Ohio) on the day of tumor implant. Therapy was initiated when the median tumor size was 100 mm^3 (typically 13 days after tumor implant).

[2] = system: L2987 human lung tumor xenografts; test: Test V in vivo activity of relaxed BR64 and L6 conjugates; design: species or system BALB/c nu/nu mice; conditions: optimized doses of adriamycin
Method: The in vivo antitumor activity of immunoconjugates of adriamycin and relaxed BR64 or relaxed L6 was evaluated.
Congenitally athymic female mice of BALB/c background (BALB/C nu/nu; Harlan Sprague-Dawley, Indianapolis, Ind.) were used. Mice were housed in Thoren caging units on sterile bedding with controlled temperature and humidity. Animals received sterile food and water ad libitum.
The L2987 human tumor line was established as tumor xenograft models in athymic mice. The tumor line was maintained by serial passage in vivo. Tumors were measured in 2 perpendicular directions at weekly or biweekly intervals using calipers. Tumor volume was calculated according to the equation: [formula]
In general, there were 8-10 mice per control or treatment group. Data are presented as median tumor size for control or treated groups. Antitumor activity is expressed in terms of gross log cell kill (“LCK”) where: [formula] […]
For animals bearing the L2987 human lung tumor, therapy was typically initiated when the median tumor size was 75 mm^3(12-14 days after tumor implant). The average TVDT was 4.8±0.9 days and antitumor activity was assessed at a tumor size of 500 mm^3. […]
Materials under investigation were administered by the ip or iv route. […] Compounds were administered on a mg/kg basis calculated for each animal, and doses are presented as mg/kg of equivalent adriamycin/injection. […]

[3] = system: L2987 lung tumor xenografts; test: BR96-DOX against established subcutaneous xenografts; format: in vivo, athymic mice
Method: Athymic rats were transplanted subcutaneously with human lung adenocarcinoma L2987, colon carcinoma RCA, or breast carcinoma MCF7 and permitted to grow. […]
(§6) Mice and rats were administered with BR96-DOX by three injections, each injection being about four days apart. Mice which were injected intraperitoneally (IP) were given 20 mg/kg of BR96-DOX. Mice which were injected intravenously were given 10 mg/kg of BR96. Intravenous (IV) injection involved less volume of BR96 because of the constraints of injection volume, namely, only 10 mg/kg was administrable by IV.
(§7) Controls One set of controls included untreated mice and mice that received (1) DOX (at doses optimized to produce maximal antitumor activity in each model); (2) unconjugated BR96; (3) mixtures of BR96 and DOX; and (4) DOX conjugated to either normal human IgG or the control MAb SN7. Doses of DOX and MAb are presented as mg/kg/[…].
(§8) Treatment with BR96-DOX consistently cured most mice bearing L2987 (FIG. 46A) or RCA (FIG. 46B) tumors. […] Complete tumor regression (CR) refers to a tumor that for a period of time is not palpable. Partial tumor regression (PR) means a decrease in tumor volume to ≦50% of the initial tumor volume.

[4] = system: RCA human colon tumor xenografts; test: Test VI in vivo activity of ChiBR96-ADM conjugates; design: species or system athymic mice
Excerpt: as §1, §2, §3, §4, §5
For animals bearing the RCA colon tumor, therapy was initiated 15 days after tumor implant when the median tumor size was 75 mm^3. The average TVDT for RCA tumor xenografts was 9.5±1.5 days and antitumor activity was assessed at 400 mm^3.

parental cell line = test: In vitro 3[H]-thymidine incorporation IC50; format: cell-based
[5] = system: cells obtained from tumors that grew back after BR96-DOX induced regression; test: In vitro 3[H]-thymidine incorporation IC50; format: cell-based; conditions: treatment (regrown tumor cells)
[6] = Maximum tolerated dose, 3 injections 4 days apart; format: in vivo, mice; conditions: equivalent DOX dose
Method: The maximum tolerated dose (MTD) (equivalent DOX dose) of the BR96-DOX conjugate (administered as 3 injections 4 days apart) was 20 mg/kg administered intraperitoneally (IP). When administered intravenously (IV) the MTD was ≧10 mg/kg. This was the maximum dose that could be administered IV because of the constraints of injection volume.
The MTD of unconjugated DOX (8 mg/kg IV and 4 mg/kg IP) was lower than that of the BR96-DOX conjugate. Unconjugated DOX administered IV at the MTD produced a delay in tumor growth but no tumor regressions and if the dose was reduced to 50% of the MTD, DOX had no effect.

[7] = system: RCA colon carcinoma xenografts; test: BR96-DOX against established subcutaneous xenografts; format: in vivo, athymic mice
Method: (§9) Athymic rats were transplanted subcutaneously with human lung adenocarcinoma L2987, colon carcinoma RCA, or breast carcinoma MCF7 and permitted to grow. Therapy (3 treatments 4 days apart) started 14 to 28 days after tumor transplantation when tumors were well established, i.e., when the tumors were 50 to 100 mm^3 in size.
as §6, §7, §8

[8] = system: L2987 human lung carcinoma, subcutaneous; test: BR96-DOX against human lung tumors implanted in rats; format: in vivo, athymic Rowett rats
Excerpt: Athymic mice and athymic Rowett rats (Harlan Sprague Dawley) were used in this study.
as §9
Another set included rats using the protocol used in control mice.

[9] = system: L2987 spheroids inoculated IV; test: BR96-DOX against large disseminated tumors; format: in vivo, athymic mice; conditions: DOX 8 mg/kg
Excerpt: L2987 lung carcinoma cells were selected in vitro for the ability to grow as multicellular spheroids. When injected IV into athymic mice or rats, tumors developed at various sites, including lymph nodes, lung, spleen, liver, brain, subcutaneously, and ascites was formed in some animals.
Mice were inoculated IV with L2987 spheroids.
The burden of disseminated disease in these animals was so far advanced that 50% of control animals died during the first 6 days of the experiment. […] Surviving mice were sacrificed 200 days after cell inoculation and sections of lung, lymph nodes, spleen, colon, jejunum, kidney, liver, brain, and heart were examined by histology.

[10] = system: L2987 human lung tumor xenografts; test: Test VI in vivo activity of ChiBR96-ADM conjugates; design: species or system athymic mice
Excerpt: as §1, §2, §3, §4, §5
For animals bearing the L2987 human lung tumor, therapy typically was initiated when the median tumor size was 75 mm^3 (12-14 days after tumor implant). The average TVDT was 4.8±0.9 days and antitumor activity was assessed at a tumor size of 500 mm^3. In several experiments therapy was initiated when L2987 tumors were 225 mm^3 in size.

[11] = Solubility of the hydrazone during conjugation; format: physicochemical; conditions: PBS
Method: 3. The solution is transferred back to a round bottom flask equipped with a magnetic stirrer and kept in ice. The solution continuously is blanketed by nitrogen. The volume of the solution is noted. […] A solution of maleimidocaproyl hydrazone of adriamycin in distilled water (5 mg/mL, 6.3×10^−3 M) is prepared (notes 7, 8). The amount (in mL) of this solution needed for the conjugation is determined by the formula: [formula]
10. Brief applications of a sonicator will facilitate dissolution in distilled water. The resulting solution is stable.

COc1cccc2c1C(=O)c1c(O)c3c(c(O)c1C2=O)C[C@@](O)(C(=O)CO)C[C@@H]3O[C@H]1C[C@H](N)[C@H](O)[C@H](C)O1 [Adriamycin, adriamycin]
CR [1]: 0%
Cure [1]: 0%
LCK [1]: 1.4
PR [1]: 0%
LCK [2]: 1.1 LCK
tumor regressions: Complete ([3]; L2987, q4dx3, DOX 8.0, no MAb): 0%
tumor regressions: Cures ([3]; L2987, q4dx3, DOX 8.0, no MAb): 0%
tumor regressions: Partial ([3]; L2987, q4dx3, DOX 8.0, no MAb): 0.8 ± 0.8%
antitumor activity ([3]; L2987 tumors 250 to 800 mm^3, optimal dose of DOX): antitumor activity was not observed
CR ([4]; 10/405 mg/kg, ip): 0%
Cure ([4]; 10/405 mg/kg, ip): 0%
LCK ([4]; 10/405 mg/kg, ip): 0
PR ([4]; 10/405 mg/kg, ip): 0%
CR ([4]; ADM 8/0 mg/kg, iv): 0%
Cure ([4]; ADM 8/0 mg/kg, iv): 0%
LCK ([4]; ADM 8/0 mg/kg, iv): 0.4
PR ([4]; ADM 8/0 mg/kg, iv): 0%
IC50 (parental cell line): 300 ± 200 nM
IC50 [5]: 400 ± 100 nM
maximum tolerated dose (MTD) ([6]; intraperitoneally (IP)): 4 mg/kg
maximum tolerated dose (MTD) ([6]; intravenously (IV)): 8 mg/kg
activity against established RCA tumors (growth delay or regressions) ([7]; DOX alone): not active
tumor regressions: Complete ([7]; RCA, q4dx3, DOX 8.0, no MAb): 0%
tumor regressions: Cures ([7]; RCA, q4dx3, DOX 8.0, no MAb): 0%
tumor regressions: Partial ([7]; RCA, q4dx3, DOX 8.0, no MAb): 0%
tumor regressions: Complete ([7]; mouse, in vivo): 0%
tumor regressions: Cures ([7]; mouse, in vivo): 0%
tumor regressions: Partial ([7]; mouse, in vivo): 0%
MTD of free DOX ([8]; 3 injections 4 days apart): 4 mg/kg
cures ([8]; rats, 4 mg/kg, 3 injections 4 days apart (MTD of free DOX)): 25%
day by which 100% of the mice were dead [9]: 140 days
CR ([10]; ADM 8 mg/kg, iv (Table 16)): 0%
Cure ([10]; ADM 8 mg/kg, iv (Table 16)): 0%
PR ([10]; ADM 8 mg/kg, iv (Table 16)): 0%
LCK ([10]; ADM 8 mg/kg, iv, q4dx3 (Table 16)): 1.5
CR ([10]; ADM 8 mg/kg, no antibody, iv): 0%
Cure ([10]; ADM 8 mg/kg, no antibody, iv): 0%
PR ([10]; ADM 8 mg/kg, no antibody, iv): 3.6%
LCK ([10]; ADM 8 mg/kg, no antibody, iv, q4dx3 (55 mice)): 1-1.8
LCK ([10]; FIG. 57, optimized adriamycin (8 mg/kg)): 1.0 LCK
LCK ([10]; FIG. 58, optimized adriamycin): 1.6 LCK

COc1cccc2c1C(=O)c1c(O)c3c(c(O)c1C2=O)C[C@@](O)(/C(CO)=N/NC(=O)CCCCCN1C(=O)C=CC1=O)C[C@@H]3O[C@H]1C[C@H](N)[C@H](O)[C@H](C)O1 [hydrazone, Maleimidocaproylhydrazone of Adriamycin]
solubility [11]: not very soluble in PBS
